Reference: patent publication US5530126A, “Process for the preparation of substituted 6-(pyrazol-3yl)-1,4-benzoxazin-3-ones” (Monsanto Company, priority 1994, dated 1996)

How the values were obtained:
Format in all cases: in vivo
[1] = system: Annual bluegrass; assay: Pre-emergence herbicide test; details: read-out: % plant inhibition (Anbg); for inhibition at 11210 g/ha: 11.21 kg/ha; for inhibition at 1120 g/ha: 1.12 kg/ha
Procedure, shortened: (§1)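 Known dose of active, dissolved or suspended in acetone or water, delivered onto seed bed prior to emergence and buried under untreated topsoil. Greenhouse incubation with watering from below. Percentage inhibition rated 10-14 days after seeding.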

[2] = system: Barnyardgrass; assay: Pre-emergence herbicide test; details: Echinochloa crus-galli, read-out: % plant inhibition (Bygr); for inhibition at 11210 g/ha: 11.21 kg/ha; for inhibition at 1120 g/ha: 1.12 kg/ha
Procedure, shortened: as §1

[3] = system: Cocklebur; assay: Pre-emergence herbicide test; details: Xanthium strumarium, read-out: % plant inhibition (Cobu); for inhibition at 11210 g/ha: 11.21 kg/ha; for inhibition at 1120 g/ha: 1.12 kg/ha
Procedure, shortened: as §1

[4] = system: Downy Brome; assay: Pre-emergence herbicide test; details: Bromus tectorum, read-out: % plant inhibition (Dobr); for inhibition at 11210 g/ha: 11.21 kg/ha; for inhibition at 1120 g/ha: 1.12 kg/ha
Procedure, shortened: as §1

[5] = system: Indian Mustard; assay: Pre-emergence herbicide test; details: Brassica juncea, read-out: % plant inhibition (Inmu); for inhibition at 11210 g/ha: 11.21 kg/ha; for inhibition at 1120 g/ha: 1.12 kg/ha
Procedure, shortened: as §1

[6] = system: Morningglory; assay: Pre-emergence herbicide test; details: Ipomoea, read-out: % plant inhibition (Mogl); for inhibition at 11210 g/ha: 11.21 kg/ha; for inhibition at 1120 g/ha: 1.12 kg/ha
Procedure, shortened: as §1

[7] = system: Seedling johnsongrass; assay: Pre-emergence herbicide test; details: Sorghum halepense, read-out: % plant inhibition (Sejg); for inhibition at 11210 g/ha: 11.21 kg/ha; for inhibition at 1120 g/ha: 1.12 kg/ha
Procedure, shortened: as §1

[8] = system: Velvetleaf; assay: Pre-emergence herbicide test; details: Abutilon theophrasti, read-out: % plant inhibition (Vele); for inhibition at 11210 g/ha: 11.21 kg/ha; for inhibition at 1120 g/ha: 1.12 kg/ha
Procedure, shortened: as §1

[9] = system: Wild buckwheat; assay: Pre-emergence herbicide test; details: Fallopia convolvulus, read-out: % plant inhibition (Wibw); for inhibition at 11210 g/ha: 11.21 kg/ha; for inhibition at 1120 g/ha: 1.12 kg/ha
Procedure, shortened: as §1

[10] = system: Yellow nutsedge; assay: Pre-emergence herbicide test; details: Cyperus, read-out: % plant inhibition (Yens); for inhibition at 11210 g/ha: 11.21 kg/ha; for inhibition at 1120 g/ha: 1.12 kg/ha
Procedure, shortened: as §1

[11] = system: Annual bluegrass; assay: Post-emergence herbicide test; details: read-out: % plant inhibition (Anbg); for inhibition at 11210 g/ha: 11.21 kg/ha; for inhibition at 1120 g/ha: 1.12 kg/ha
Procedure, shortened: (§2)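 Scoring: percent inhibition relative to control, usually 11 days post-treatment, with a later look near 25 days in some instances. Plants had been grown in greenhouse pans for two to three weeks before atomizer spraying at 1870 L/Ha.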

[12] = system: Barnyardgrass; assay: Post-emergence herbicide test; details: Echinochloa crus-galli, read-out: % plant inhibition (Bygr); for inhibition at 11210 g/ha: 11.21 kg/ha; for inhibition at 1120 g/ha: 1.12 kg/ha
Procedure, shortened: as §2

[13] = system: Cocklebur; assay: Post-emergence herbicide test; details: Xanthium strumarium, read-out: % plant inhibition (Cobu); for inhibition at 11210 g/ha: 11.21 kg/ha; for inhibition at 1120 g/ha: 1.12 kg/ha
Procedure, shortened: as §2

[14] = system: Downy Brome; assay: Post-emergence herbicide test; details: Bromus tectorum, read-out: % plant inhibition (Dobr); for inhibition at 11210 g/ha: 11.21 kg/ha; for inhibition at 1120 g/ha: 1.12 kg/ha
Procedure, shortened: as §2

[15] = system: Indian Mustard; assay: Post-emergence herbicide test; details: Brassica juncea, read-out: % plant inhibition (Inmu); for inhibition at 11210 g/ha: 11.21 kg/ha; for inhibition at 1120 g/ha: 1.12 kg/ha
Procedure, shortened: as §2

[16] = system: Morningglory; assay: Post-emergence herbicide test; details: Ipomoea, read-out: % plant inhibition (Mogl); for inhibition at 11210 g/ha: 11.21 kg/ha; for inhibition at 1120 g/ha: 1.12 kg/ha
Procedure, shortened: as §2

[17] = system: Seedling johnsongrass; assay: Post-emergence herbicide test; details: Sorghum halepense, read-out: % plant inhibition (Sejg); for inhibition at 11210 g/ha: 11.21 kg/ha; for inhibition at 1120 g/ha: 1.12 kg/ha
Procedure, shortened: as §2

[18] = system: Velvetleaf; assay: Post-emergence herbicide test; details: Abutilon theophrasti, read-out: % plant inhibition (Vele); for inhibition at 11210 g/ha: 11.21 kg/ha; for inhibition at 1120 g/ha: 1.12 kg/ha
Procedure, shortened: as §2

[19] = system: Wild buckwheat; assay: Post-emergence herbicide test; details: Fallopia convolvulus, read-out: % plant inhibition (Wibw); for inhibition at 11210 g/ha: 11.21 kg/ha; for inhibition at 1120 g/ha: 1.12 kg/ha
Procedure, shortened: as §2

[20] = system: Yellow nutsedge; assay: Post-emergence herbicide test; details: Cyperus, read-out: % plant inhibition (Yens); for inhibition at 11210 g/ha: 11.21 kg/ha; for inhibition at 1120 g/ha: 1.12 kg/ha
Procedure, shortened: as §2

Row | SMILES | inhibition at 11210 g/ha [1] [%] | inhibition at 11210 g/ha [2] [%] | inhibition at 11210 g/ha [3] [%] | inhibition at 11210 g/ha [4] [%] | inhibition at 11210 g/ha [5] [%] | inhibition at 11210 g/ha [6] [%] | inhibition at 11210 g/ha [7] [%] | inhibition at 11210 g/ha [8] [%] | inhibition at 11210 g/ha [9] [%] | inhibition at 11210 g/ha [10] [%] | inhibition at 11210 g/ha [11] [%] | inhibition at 11210 g/ha [12] [%] | inhibition at 11210 g/ha [13] [%] | inhibition at 11210 g/ha [14] [%] | inhibition at 11210 g/ha [15] [%] | inhibition at 11210 g/ha [16] [%] | inhibition at 11210 g/ha [17] [%] | inhibition at 11210 g/ha [18] [%] | inhibition at 11210 g/ha [19] [%] | inhibition at 11210 g/ha [20] [%] | further results
1 | Cn1nc(-c2cc(N(S(C)(=O)=O)S(C)(=O)=O)c(Cl)cc2Cl)c(Cl)c1C(F)(F)F [Compound 87] | 10 | 40 | 10 | 20 | 70 | 70 | 30 | 90 | 90 | 10 | 10 | 20 | 50 | 0 | 30 | 70 | 40 | 100 | 40 | 10 | 
2 | Cn1nc(-c2cc(NC(=O)C(F)(F)F)c(Cl)cc2Cl)c(Cl)c1C(F)(F)F [Compound 88] | 20 | 10 | 20 | 10 | 20 | 10 | 30 | 80 | 100 | 10 | 10 | 50 | 100 | 10 | 60 | 100 | 70 | 100 | 100 | 0 | 
3 | Cn1nc(-c2cc(S(=O)(=O)Cl)c(Cl)cc2Cl)c(Cl)c1C(F)(F)F [Compound 89] | 0 | 0 | 0 | 0 | 70 | 20 | 0 | 90 | 30 | 10 | 10 | 20 | 100 | 10 | 80 | 100 | 70 | 100 | 50 | 0 | 
4 | CCS(=O)(=O)N(c1cc(-c2nn(C)c(C(F)(F)F)c2Cl)c(Cl)cc1Cl)S(=O)(=O)CC [Compound 90] | 10 | 10 | 0 | 10 | 10 | 10 | 50 | 20 | 30 | 0 | 10 | 0 | 30 | 10 | 50 | 60 | 0 | 100 | 50 | 0 | 
5 | Cn1nc(-c2cc(NS(C)(=O)=O)c(Cl)cc2Cl)c(Cl)c1C(F)(F)F [Compound 91] |  |  |  |  |  |  |  |  |  |  |  |  |  |  |  |  |  |  |  |  | inhibition at 1120 g/ha [1]: 0%; inhibition at 1120 g/ha [2]: 0%; inhibition at 1120 g/ha [3]: 20%; inhibition at 1120 g/ha [4]: 0%; inhibition at 1120 g/ha [5]: 90%; inhibition at 1120 g/ha [6]: 90%; inhibition at 1120 g/ha [7]: 0%; inhibition at 1120 g/ha [8]: 100%; inhibition at 1120 g/ha [9]: 70%; inhibition at 1120 g/ha [10]: 0%; inhibition at 1120 g/ha [11]: 50%; inhibition at 1120 g/ha [12]: 30%; inhibition at 1120 g/ha [13]: 100%; inhibition at 1120 g/ha [14]: 40%; inhibition at 1120 g/ha [15]: 50%; inhibition at 1120 g/ha [16]: 60%; inhibition at 1120 g/ha [17]: 40%; inhibition at 1120 g/ha [18]: 40%; inhibition at 1120 g/ha [19]: 80%; inhibition at 1120 g/ha [20]: 10%
6 | CCS(=O)(=O)Nc1cc(-c2nn(C)c(C(F)(F)F)c2Cl)c(Cl)cc1Cl [Compound 92] |  |  |  |  |  |  |  |  |  |  |  |  |  |  |  |  |  |  |  |  | inhibition at 1120 g/ha [1]: 0%; inhibition at 1120 g/ha [2]: 0%; inhibition at 1120 g/ha [3]: 20%; inhibition at 1120 g/ha [4]: 0%; inhibition at 1120 g/ha [5]: 20%; inhibition at 1120 g/ha [6]: 80%; inhibition at 1120 g/ha [7]: 0%; inhibition at 1120 g/ha [8]: 90%; inhibition at 1120 g/ha [9]: 80%; inhibition at 1120 g/ha [10]: 0%; inhibition at 1120 g/ha [11]: 30%; inhibition at 1120 g/ha [12]: 30%; inhibition at 1120 g/ha [13]: 80%; inhibition at 1120 g/ha [14]: 50%; inhibition at 1120 g/ha [15]: 80%; inhibition at 1120 g/ha [16]: 100%; inhibition at 1120 g/ha [17]: 40%; inhibition at 1120 g/ha [18]: 100%; inhibition at 1120 g/ha [19]: 80%; inhibition at 1120 g/ha [20]: 20%
7 | Cn1nc(-c2cc(S)c(Cl)cc2Cl)c(Cl)c1C(F)(F)F [Compound 93] |  |  |  |  |  |  |  |  |  |  |  |  |  |  |  |  |  |  |  |  | inhibition at 1120 g/ha [1]: 0%; inhibition at 1120 g/ha [2]: 0%; inhibition at 1120 g/ha [3]: 20%; inhibition at 1120 g/ha [4]: 0%; inhibition at 1120 g/ha [5]: 10%; inhibition at 1120 g/ha [6]: 30%; inhibition at 1120 g/ha [7]: 0%; inhibition at 1120 g/ha [8]: 20%; inhibition at 1120 g/ha [9]: 20%; inhibition at 1120 g/ha [10]: 0%; inhibition at 1120 g/ha [11]: 10%; inhibition at 1120 g/ha [12]: 70%; inhibition at 1120 g/ha [13]: 70%; inhibition at 1120 g/ha [14]: 50%; inhibition at 1120 g/ha [15]: 60%; inhibition at 1120 g/ha [16]: 60%; inhibition at 1120 g/ha [17]: 40%; inhibition at 1120 g/ha [18]: 90%; inhibition at 1120 g/ha [19]: 90%; inhibition at 1120 g/ha [20]: 0%
